Laboratory results as given in patent US8709405B2, “Cancer vaccines containing epitopes of oncofetal antigen” (South Alabama Medical Science Foundation, priority 2002, dated 2014).

Columns and labels:
Assay type in all cases: cell-based, BALB/c mouse
CD8 T cell clone H5 (Ts) = experiment: BUdR incorporation ELISA proliferation assay, Ts clone H5; conditions: Table 4
Experimental: (§1) The epitopes recognized by 15 iLRP-reactive T cell clones derived from either naive BALB/c mice, BALB/c mice bearing MCA1315 fibrosarcoma tumors, or from BALB/c mice immunized with either 1 or 10 μg of recombinant murine iLRP were determined by testing the proliferation of those clones to overlapping peptides spanning the region of the iLRP molecule recognized by each clone in the presence of IL-2, as a growth factor for T cells and irradiated, T cell-depleted, syngeneic spleen cells as antigen-presenting cells. Proliferation was measured through ELISA determination of 5-bromodeoxyuridine incorporation during culture.
(§2) More specifically, the epitope-specificity of the iLRP-specific Th1, Tc, and Ts clones was determined using a modification of the 5′-bromodeoxyuridine (BudR) incorporation ELISA technique described in Rohrer, J. W., A. L. Barsoum, D. L. Dyess, J. A. Tucker, and J. H. Coggin, Jr. 1999. Human breast carcinoma patients develop clonable oncofetal antigen-specific effector and regulatory T lymphocytes. J. Immunol. 162:6880, using the Biotrak BUdR incorporation assay (Amersham, Arlington Heights, Ill.). […] When the required color density was reached, the reaction was stopped by adding 25 μl of 1M sulfuric acid to each well and the plate read on a microELISA reader at 450 nm. […]

CD8 T cell clone M3 (Tc) = experiment: BUdR incorporation ELISA proliferation assay, Tc clone M3; conditions: Table 4
Experimental: as §1, §2

Th1 clone L3 = experiment: BUdR incorporation ELISA proliferation assay, Th1 clone L3; conditions: Table 12
Experimental: as §1, §2

[1] = test system: CD8 iLRP-specific T cell clone L6 (Tc); experiment: BUdR incorporation ELISA proliferation assay, Tc clone L6; conditions: Table 5
Experimental: as §1
More specifically, the epitope-specificity of the iLRP-specific Th1, Tc, and Ts clones was determined using a modification of the 5′-bromodeoxyuridine (BudR) incorporation ELISA technique described in Rohrer, J. W., A. L. Barsoum, D. L. Dyess, J. A. Tucker, and J. H. Coggin, Jr. 1999. Human breast carcinoma patients develop clonable oncofetal antigen-specific effector and regulatory T lymphocytes. J. Immunol. 162:6880, using the Biotrak BUdR incorporation assay (Amersham, Arlington Heights, Ill.). Briefly, at the time of restimulation of the clones, a portion of the cloned T cells were assayed for proliferation to antigen-presenting cells (APC) and various iLRP peptides. The assay was performed with 10,000 viable cloned T cells/well plus […] irradiated syngeneic spleen cells (APC) plus 100 ng/well of intact iLRP/OFA protein or the various truncated iLRP/OFA proteins or the various iLRP/OFA peptides in Iscove's modified Dulbecco's medium (IMDM) containing 2 mM L-glutamine, 100 U/ml of penicillin G, 100 μg of streptomycin sulfate, and 10% fetal calf serum. The cells were cultured for a total of 48 hours. After 24 hours of culture 5′-bromodeoxyuridine was added to a final concentration of 10 μM/well. The cells were cultured for another 24 hours. […] When the required color density was reached, the reaction was stopped by adding 25 μl of 1M sulfuric acid to each well and the plate read on a microELISA reader at 450 nm. […]

[2] = test system: CD8 iLRP-specific T cell clone M11 (Ts); experiment: BUdR incorporation ELISA proliferation assay, Ts clone M11; conditions: Table 5
Experimental: as §1, §2

Th1 clone NC4 = experiment: BUdR incorporation ELISA proliferation assay, Th1 clone NC4; conditions: Table 12
Experimental: as §1, §2

Tc Clone L2 = experiment: BUdR incorporation ELISA proliferation assay, Tc clone L2; conditions: Table 11
Experimental: as §1, §2

Th1 clone H1 = experiment: BUdR incorporation ELISA proliferation assay, Th1 clone H1; conditions: Table 12
Experimental: as §1, §2

Th1 clone M2 = experiment: BUdR incorporation ELISA proliferation assay, Th1 clone M2; conditions: Table 12
Experimental: as §1, §2

Th1 Clone NC1 = experiment: BUdR incorporation ELISA proliferation assay, Th1 clone NC1; conditions: Table 11
Experimental: as §1, §2

[3] = 100 ng/well, APC, 100 U/ml IL-2, two values given

YIYKRKSDGTYI [P4 (aa 37-48)]
Proliferation of clone H5 (in words) (CD8 T cell clone H5 (Ts)): proliferated to iLRP peptides 3 and 4 equally well

INLKRTWEKLLL [P7 (aa 49-60)]
Proliferation of clone M3 (in words) (CD8 T cell clone M3 (Tc)): proliferated to iLRP peptides 7 and 8 equally well

TAQATEWVGATT [P31 (281-292)]
Proliferation Results (A450) of Th1 Clone L3 (Th1 clone L3; [3]): .02, .02 A450

P10 (aa 61-72): iLRP 12-mer peptide, amino acids 61-72 (AARAIVAIENPA)
BUdR incorporation, CD8 iLRP-specific T cell clone L6 (Tc) ([1]; 100 ng/well stimulant with APC, two values given): .017, .017 A450

ATGATPIAGRFT [P18 (aa 93-104)]
Proliferation of clone M11 (in words) [2]: proliferated equally well

TEWVGATTDWS [P32 (285-295)]
Response of clone NC4 (in words) (Th1 clone NC4): responded best

TPIAGRFTPGTF [P19 (aa 97-108)]
Proliferation of clone M11 (in words) [2]: proliferated equally well

EEFQGEWTAPAP [P17 (225-236)]
Proliferation of CD8 Tc clone L2 (in words) (Tc Clone L2): proliferated identically

ISSRNTGQRAVL [P14 (aa 77-88)]
Proliferation of clone L6 (in words) [1]: proliferated equally well

AQPEVADWSEGV [P21 (241-252)]
Proliferation Results (A450) of Th1 Clone H1 (Th1 clone H1; [3]): .02, .02 A450 | Response of clone L3 (in words) (Th1 clone L3): responded best

RTWEKLLLAARA [P8 (aa 53-64)]
Proliferation of clone M3 (in words) (CD8 T cell clone M3 (Tc)): proliferated to iLRP peptides 7 and 8 equally well

SAAPTAQATEWV [P30 (277-288)]
Response of clone H1 (in words) (Th1 clone H1): responded best

QMEQYIYKRKSD [P3 (aa 33-44)]
Proliferation of clone H5 (in words) (CD8 T cell clone H5 (Ts)): proliferated to iLRP peptides 3 and 4 equally well

QVPSVPIQQFPT [P24 (253-264)]
Response of clone M2 (in words) (Th1 clone M2): responded best

NTGQRAVLKFAA [P15 (aa 81-92)]
Proliferation of clone L6 (in words) [1]: proliferated equally well

GEWTAPAPEFTA [P18 (229-240)]
Proliferation of CD8 Tc clone L2 (in words) (Tc Clone L2): proliferated identically | Response of Th1 clone NC1 (in words) (Th1 Clone NC1): responded best
